{
  "source": "patent US20160030407A1",
  "about": "“Method of Treating Inflammatory Lung Disease” (priority 2010, published 2016)",
  "assay": "Plasma toxicokinetics after single i.v. bolus",
  "assay_type": "in vivo, Sprague-Dawley rats",
  "conditions": "for Concentration in rat plasma: Anatabine 0.1 mg/kg dose group, individual rats; for Avg. Conc. (Combined Male and Female) / Avg. Conc. (Male or Female): Rat Plasma; for half-life: Sprague-Dawley, iv",
  "method": "Six rats (3 males and 3 females) were dosed per dose group. […] Plasma and brain homogenates were stored at −80° C. until analysis.\nAn additional 48 rats (24 males and 24 females) received a single intravenous dose via the tail vein at the same doses as mentioned above. At 30 and 360 minutes post administration, 6 rats (3 males and 3 females) per dose group, per time point were euthanized, bled via cardiac puncture, and perfused, and brains were collected. The brains were homogenized. Blood was spun, and plasma was collected. Plasma and brain homogenate were stored at −80° C.\nFour aliquots of each dose level formulation were collected and stored at −80° C. The test compound, corresponding dose level, number of animals, and sample collection times for Phase I of the study are shown in Table 3. The test compound, corresponding dose level, number of animals, and sample collection times for Phase II of the study are shown in Table 4. The physical signs of each animal were monitored following administration of the test compound.\nThe animals were weighed prior to dosing and received a single i.v. dose of either test compound at a volume of 5 mL/kg. Blood was collected via the venus plexus (retro-orbital) into tubes containing (K2) EDTA. No more than 0.5 mL was collected per time point. […] The brain was removed, weighed, homogenized in sterile 0.9% saline at a volume equal to its weight, and stored at −80° C.\nPlasma was separated according to the instructions for MICROTAINER® brand collection tubes (3 minutes, 2000×g). Plasma was decanted into microfuge tubes and stored at −80° C. Remaining test compound was stored at −80° C.\nThe amount of the test agent in the supernatant was determined by liquid chromatography tandem mass spectrometry (LC/MS/MS).\nAnalysis. Samples were analyzed by LC/MS/MS using an Agilent 6410 mass spectrometer coupled with an Agilent 1200 high pressure liquid chromatography (HPLC) and a CTC PAL chilled autosampler, all controlled by MassHunter software (Agilent). After separation on a hydrophilic interaction liquid chromatography (HILIC) HPLC column (Sepax) using an acetonitrile-ammonium acetate/acetic acid gradient system, peaks were analyzed by mass spectrometry (MS) using ESI ionization in multiple reaction monitoring (MRM) mode. MassHunter software was used to calculate the concentration of the test compounds in samples from the peak area using the appropriate calibration curves.",
  "key": {"[1]": {"conditions": "rat plasma, single i.v. 0.1 mg/kg, female"}, "[2]": {"conditions": "rat plasma, single i.v. 0.75 mg/kg, male"}, "[3]": {"conditions": "rat plasma, single i.v. 0.1 mg/kg, M + F"}, "[4]": {"conditions": "rat plasma, single i.v. 0.1 mg/kg, male"}, "[5]": {"conditions": "rat plasma, single i.v. 0.75 mg/kg, M + F"}, "[6]": {"conditions": "rat plasma, single i.v. 0.75 mg/kg, female"}, "[7]": {"conditions": "rat plasma, single i.v. 1.0 mg/kg, M + F"}, "[8]": {"conditions": "rat plasma, single i.v. 1.0 mg/kg, female"}, "[9]": {"conditions": "rat plasma, single i.v. 1.0 mg/kg, male"}},
  "data": [
    {"compound": "C1=CCC(c2cccnc2)NC1", "note": "(racemic) [Anatabine, 1,2,3,6-tetrahydro-[2,3′]bipyridinyl]", "values": [
      {"measurement": "Concentration in rat plasma", "setting": "rat plasma, time point 4 hr", "result": "<LLQ"},
      {"measurement": "Concentration in rat plasma", "setting": "rat plasma, time point 6 hr", "result": "<LLQ"},
      {"measurement": "Concentration in rat plasma", "setting": "rat plasma, time point 8 hr", "result": "<LLQ"},
      {"measurement": "Concentration in rat plasma", "setting": "rat plasma, time point 24 hr", "result": "<LLQ"},
      {"measurement": "Avg. Conc. (Combined Male and Female)", "setting": "Anatabine 0.1 mg/kg, 8 hr", "result": "<LLQ"},
      {"measurement": "Avg. Conc. (Combined Male and Female)", "setting": "Anatabine 0.1 mg/kg, 24 hr", "result": "<LLQ"},
      {"measurement": "Avg. Conc. (Male or Female)", "setting": "Anatabine 0.1 mg/kg, female, 8 hr", "result": "<LLQ"},
      {"measurement": "Avg. Conc. (Male or Female)", "setting": "Anatabine 0.1 mg/kg, female, 24 hr", "result": "<LLQ"},
      {"measurement": "Avg. Conc. (Male or Female)", "setting": "Anatabine 0.1 mg/kg, male, 6 hr (1st line)", "result": "<LLQ"},
      {"measurement": "Avg. Conc. (Male or Female)", "setting": "Anatabine 0.1 mg/kg, male, 8 hr", "result": "<LLQ"},
      {"measurement": "Avg. Conc. (Male or Female)", "setting": "Anatabine 0.1 mg/kg, male, 24 hr", "result": "<LLQ"},
      {"measurement": "Avg. Conc. (Combined Male and Female)", "setting": "Anatabine 0.75 mg/kg, 24 hr", "result": "<LLQ"},
      {"measurement": "Avg. Conc. (Male or Female)", "setting": "Anatabine 0.75 mg/kg, female, 24 hr", "result": "<LLQ"},
      {"measurement": "Avg. Conc. (Male or Female)", "setting": "Anatabine 0.75 mg/kg, male, 24 hr", "result": "<LLQ"},
      {"measurement": "Avg. Conc. (Combined Male and Female)", "setting": "Anatabine 1.0 mg/kg, 24 hr", "result": "<LLQ"},
      {"measurement": "Avg. Conc. (Male or Female)", "setting": "Anatabine 1.0 mg/kg, female, 24 hr", "result": "<LLQ"},
      {"measurement": "Avg. Conc. (Male or Female)", "setting": "Anatabine 1.0 mg/kg, male, 24 hr", "result": "<LLQ"},
      {"measurement": "half-life", "setting": "[1]", "result": "1.64 ± 0.59", "unit": "h"},
      {"measurement": "half-life", "setting": "[2]", "result": "1.64 ± 0.12", "unit": "h"},
      {"measurement": "half-life", "setting": "both sexes, rat plasma, single i.v. 0.75 mg/kg, M + F", "result": "1.68 ± 0.09", "unit": "h"},
      {"measurement": "half-life", "setting": "both sexes, rat plasma, single i.v. 1.0 mg/kg, M + F", "result": "1.64 ± 0.25", "unit": "h"},
      {"measurement": "apparent volume of distribution (VD) compared with nicotine", "setting": "rat plasma, single i.v.", "result": "significantly greater than that of nicotine"},
      {"measurement": "AUC0→∞", "setting": "[3]", "result": "35.0 ± 11.6", "unit": "ng·h/mL"},
      {"measurement": "VD", "setting": "[3]", "result": "6.08 ± 0.45", "unit": "L/kg"},
      {"measurement": "t1/2", "setting": "[3]", "result": "1.44 ± 0.48", "unit": "h"},
      {"measurement": "AUC0→∞", "setting": "[1]", "result": "37.9 ± 15.9", "unit": "ng·h/mL"},
      {"measurement": "VD", "setting": "[1]", "result": "6.52 ± 0.66", "unit": "L/kg"},
      {"measurement": "AUC0→∞", "setting": "[4]", "result": "32.0 ± 7.7", "unit": "ng·h/mL"},
      {"measurement": "VD", "setting": "[4]", "result": "5.29 ± 0.49", "unit": "L/kg"},
      {"measurement": "t1/2", "setting": "[4]", "result": "1.25 ± 0.32", "unit": "h"},
      {"measurement": "AUC0→∞", "setting": "[5]", "result": "504.4 ± 63.5", "unit": "ng·h/mL"},
      {"measurement": "VD", "setting": "[5]", "result": "3.33 ± 0.13", "unit": "L/kg"},
      {"measurement": "AUC0→∞", "setting": "[6]", "result": "544.5 ± 62.7", "unit": "ng·h/mL"},
      {"measurement": "VD", "setting": "[6]", "result": "3.19 ± 0.15", "unit": "L/kg"},
      {"measurement": "t1/2", "setting": "[6]", "result": "1.73 ± 0.03", "unit": "h"},
      {"measurement": "AUC0→∞", "setting": "[2]", "result": "464.4 ± 36.2", "unit": "ng·h/mL"},
      {"measurement": "VD", "setting": "[2]", "result": "3.48 ± 0.18", "unit": "L/kg"},
      {"measurement": "AUC0→∞", "setting": "[7]", "result": "710.07 ± 88.4", "unit": "ng·h/mL"},
      {"measurement": "VD", "setting": "[7]", "result": "3.08 ± 0.16", "unit": "L/kg"},
      {"measurement": "AUC0→∞", "setting": "[8]", "result": 788.9, "unit": "ng·h/mL"},
      {"measurement": "VD", "setting": "[8]", "result": "3.16 ± 0.15", "unit": "L/kg"},
      {"measurement": "t1/2", "setting": "rat plasma, single i.v. 1.0 mg/kg, female, 1 mg/kg", "result": 1.84, "unit": "h"},
      {"measurement": "AUC0→∞", "setting": "[9]", "result": 631.3, "unit": "ng·h/mL"},
      {"measurement": "VD", "setting": "[9]", "result": "3.01 ± 0.12", "unit": "L/kg"},
      {"measurement": "t1/2", "setting": "rat plasma, single i.v. 1.0 mg/kg, male, 1 mg/kg", "result": 1.44, "unit": "h"},
      {"measurement": "plasma concentration between approximately 6 and 8 hours", "setting": "rat, single i.v., nicotine 0.4 mg/kg, anatabine 0.1 mg/kg", "result": "below the limits of quantitation"}
    ]}
  ]
}
